Data taken from PubChem BioAssay (NCI).
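Cells were grown in 96-well plates and exposed to each compound for 48 hours at five concentrations; endpoints were interpolated linearly between bracketing concentrations, or set to the highest concentration if not reached. GI50 is the concentration that inhibits growth by half. TGI: total growth inhibition.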

Tests used:
Test in all cases: inhibition of tumour cell growth, NCI panel, 48 h
[1] = system: NCI-H460 lung
[2] = system: SF-268 CNS
[3] = system: RXF 393 renal
[4] = system: HCC-2998 colon
[5] = system: HCT-116 colon
[6] = system: T-47D breast
[7] = system: SF-539 CNS
[8] = system: SN12C renal
[9] = system: SK-MEL-2 melanoma
[10] = system: SW-620 colon

## Cc1ccc2c(c1)C(=O)c1c-2n(CCCN)c(=O)c2cc([N+](=O)[O-])ccc12
[1]
  GI50: 0.0349 µM
  TGI: 0.629 µM
[2]
  GI50: 0.0373 µM
  TGI: 0.555 µM
[3]
  GI50: 0.627 µM
  TGI: 1.31 µM
[4]
  GI50: 0.531 µM
  TGI: 1.17 µM
[5]
  GI50: 0.166 µM
  TGI: 0.718 µM
[6]
  GI50: 0.157 µM
  TGI: 0.461 µM
[7]
  GI50: 0.732 µM
  TGI: 1.44 µM
[8]
  GI50: 0.281 µM
  TGI: 1.02 µM
[9]
  GI50: 1.37 µM
  TGI: 4.15 µM

## CC(C)[C@@H]1C=C(c2ccccc2)c2ccccc2C1C(C#N)(C#N)C(C)C (stereo not given in full)
[1]
  TGI: > 100 µM
[2]
  TGI: > 100 µM
[3]
  TGI: > 100 µM
[4]
  TGI: > 100 µM
[5]
  TGI: > 100 µM
[7]
  TGI: > 100 µM
[8]
  TGI: > 100 µM
[10]
  TGI: > 100 µM
[9]
  TGI: > 100 µM

## NCCCCCS(=O)(=O)O
[1]
  TGI: > 100 µM
[2]
  TGI: > 100 µM
[3]
  TGI: > 100 µM
[4]
  TGI: > 100 µM
[5]
  TGI: > 100 µM
[7]
  TGI: > 100 µM
[8]
  TGI: > 100 µM
[10]
  TGI: > 100 µM
[9]
  TGI: > 100 µM

## COc1ccc(C2OC(=O)c3c2ccc2ccccc32)c(C)c1 (stereo not given)
[1]
  TGI: > 100 µM
[3]
  TGI: > 100 µM
[4]
  TGI: 3.34 µM
[5]
  TGI: > 100 µM
[8]
  TGI: 88.2 µM
[10]
  TGI: > 100 µM
[9]
  TGI: 7.52 µM

## Nc1nc2c(ncn2C2OC(CO)C(O)C2N)c(=O)[nH]1 (stereo not given)
[1]
  TGI: > 100 µM
[2]
  TGI: > 100 µM
[4]
  TGI: > 100 µM
[5]
  TGI: > 100 µM
[7]
  TGI: > 100 µM
[8]
  TGI: > 100 µM
[10]
  TGI: > 100 µM
[9]
  TGI: > 100 µM

## O=C(N/N=C(/c1nc2ccc(Cl)cc2[nH]c1=O)C(O)c1ccc(Cl)cc1Cl)c1ccncc1 (stereo not given)
[1]
  TGI: > 100 µM
[2]
  TGI: > 100 µM
[3]
  TGI: > 100 µM
[4]
  TGI: > 100 µM
[5]
  TGI: > 100 µM
[7]
  TGI: > 100 µM
[10]
  TGI: > 100 µM
[9]
  TGI: > 100 µM

## Cc1nc(C)c(C(=O)Nc2cccc3c2C(=O)NC3=O)cc1C(=O)Nc1cccc2c1C(=O)NC2=O
[1]
  TGI: > 100 µM
[2]
  TGI: > 100 µM
[3]
  TGI: > 100 µM
[4]
  TGI: > 100 µM
[5]
  TGI: > 100 µM
[7]
  TGI: > 100 µM
[8]
  TGI: > 100 µM
[10]
  TGI: > 100 µM
[9]
  TGI: > 100 µM

## COC(=O)C1=C(OC)c2cc3c(cc2C(c2cc(OC)c(OC)c(OC)c2)C1C(=O)OC)OCO3 (stereo not given)
[1]
  TGI: > 100 µM
[2]
  TGI: > 100 µM
[3]
  TGI: > 100 µM
[4]
  TGI: > 100 µM
[5]
  TGI: > 100 µM
[7]
  TGI: > 100 µM
[8]
  TGI: > 100 µM
[10]
  TGI: > 100 µM
[9]
  TGI: > 100 µM

## O=C1C2c3[nH]c4ccccc4c3[C@@H]3CCCCCCCCCCC3C2C(=O)N1c1ccccc1 (stereo not given in full)
[1]
  TGI: 34.8 µM
[2]
  TGI: 48.1 µM
[3]
  TGI: 32.7 µM
[4]
  TGI: > 100 µM
[7]
  TGI: 24.3 µM
[8]
  TGI: 54 µM
[10]
  TGI: 35.5 µM

## CCCCCCCCCCCC(=O)OCC1OC(n2cc(F)c(=O)[nH]c2=O)C(NC(=O)OCc2ccccc2)C(O)C1O (stereo not given)
[1]
  TGI: 34.3 µM
[2]
  TGI: > 100 µM
[3]
  TGI: 73.6 µM
[4]
  TGI: 32.9 µM
[5]
  TGI: 30.3 µM
[7]
  TGI: 49.4 µM
[8]
  TGI: 34.7 µM
[10]
  TGI: 41.5 µM
[9]
  TGI: 42.5 µM

## COc1ccc(/C=C2\Cc3ccccc3C2=O)cc1OC
[1]
  TGI: > 100 µM
[2]
  TGI: > 100 µM
[4]
  TGI: > 100 µM
[8]
  TGI: > 100 µM
[10]
  TGI: > 100 µM
[9]
  TGI: > 100 µM

## Oc1ccc2oc3ncc(Cl)c(-c4ccccc4)c3c2c1
[1]
  GI50: > 100 µM
  TGI: > 100 µM
[2]
  GI50: > 100 µM
  TGI: > 100 µM
[3]
  GI50: > 100 µM
  TGI: > 100 µM
[5]
  GI50: > 100 µM
  TGI: > 100 µM
[6]
  GI50: > 100 µM
  TGI: > 100 µM
[7]
  GI50: > 100 µM
  TGI: > 100 µM
[8]
  GI50: > 100 µM
  TGI: > 100 µM
[10]
  GI50: > 100 µM
  TGI: > 100 µM
[9]
  GI50: > 100 µM
  TGI: > 100 µM

## CCOC(=O)C1N(S(=O)(=O)c2ccc(C)cc2)CCC12c1ccccc1N(C(C)=O)C2C(/C=C/C(=O)OC)=C/C(=O)OC (stereo not given)
[1]
  TGI: > 100 µM
[2]
  TGI: > 100 µM
[3]
  TGI: > 100 µM
[4]
  TGI: > 100 µM
[5]
  TGI: > 100 µM
[7]
  TGI: > 100 µM
[8]
  TGI: > 100 µM
[10]
  TGI: > 100 µM

## N#Cc1cccc(NC(=O)c2ccc(C(=O)O)c(C(=O)c3ccc(C(=O)O)c(C(=O)Nc4cccc(C#N)c4)c3)c2)c1
[1]
  TGI: > 100 µM
[2]
  TGI: > 100 µM
[3]
  TGI: > 100 µM
[5]
  TGI: > 100 µM
[7]
  TGI: > 100 µM
[8]
  TGI: > 100 µM
[10]
  TGI: > 100 µM
[9]
  TGI: > 100 µM

## O=C(c1cc(O)ccc1O)c1ccccc1C(Cl)(Cl)Cl
[1]
  TGI: > 100 µM
[2]
  TGI: > 100 µM
[3]
  TGI: > 100 µM
[4]
  TGI: > 100 µM
[5]
  TGI: > 100 µM
[7]
  TGI: > 100 µM
[8]
  TGI: > 100 µM
[10]
  TGI: > 100 µM
[9]
  TGI: > 100 µM

## Cn1cnc([N+](=O)[O-])c1Sc1ccccn1
[1]
  TGI: > 100 µM
[2]
  TGI: > 100 µM
[4]
  TGI: > 100 µM
[5]
  TGI: > 100 µM
[7]
  TGI: > 100 µM
[8]
  TGI: > 100 µM
[10]
  TGI: > 100 µM
[9]
  TGI: > 100 µM

## CC1=NNC(=NCCN(C)C)C/C1=C/c1ccccc1Cl
[1]
  TGI: > 100 µM
[2]
  TGI: > 100 µM
[3]
  TGI: > 100 µM
[4]
  TGI: > 100 µM
[5]
  TGI: > 100 µM
[7]
  TGI: > 100 µM
[8]
  TGI: > 100 µM
[10]
  TGI: > 100 µM
[9]
  TGI: > 100 µM

## COC(=O)/C=C/C(=O)C1C(C(=O)OC)C2(C(=O)OC)CCC1(C(=O)OC)N2 (stereo not given)
[2]
  TGI: > 100 µM
[3]
  TGI: > 100 µM
[4]
  TGI: > 100 µM
[5]
  TGI: > 100 µM
[7]
  TGI: > 100 µM
[9]
  TGI: > 100 µM

## O=C(c1ccccc1)C1C(C(=O)c2ccccc2)N1Cc1ccccc1 (stereo not given)
[1]
  TGI: > 100 µM
[2]
  TGI: > 100 µM
[4]
  TGI: > 100 µM
[6]
  TGI: 49.8 µM
[8]
  TGI: 95.1 µM
[10]
  TGI: > 100 µM
[9]
  TGI: 51.5 µM

## CCN(CC)CCN1C(=O)c2c(c(C)c3c(oc4cc(O)ccc43)c2C)C1=O
[1]
  GI50: 1.75 µM
  TGI: 3.37 µM
[2]
  GI50: 1.74 µM
  TGI: 3.78 µM
[3]
  GI50: 1.33 µM
  TGI: 2.69 µM
[4]
  GI50: 1.62 µM
  TGI: 3.03 µM
[6]
  GI50: 2.28 µM
  TGI: 6.44 µM
[7]
  GI50: 1.68 µM
  TGI: 3.05 µM
[8]
  GI50: 1.63 µM
  TGI: 3.11 µM
[9]
  GI50: 2.35 µM
  TGI: 5.27 µM

## Cc1cc(C)cc(-n2c3nc(=O)n(C)c(=O)c-3nc3ccccc32)c1
[1]
  TGI: 94.4 µM
[2]
  TGI: > 100 µM
[3]
  TGI: > 100 µM
[4]
  TGI: 49.9 µM
[5]
  TGI: 59.8 µM
[7]
  TGI: 49.7 µM
[8]
  TGI: 76.4 µM
[10]
  TGI: 40.7 µM
[9]
  TGI: 63.5 µM

## O=P(Oc1ccc(Cl)cc1)(Oc1ccc(Cl)cc1)N1CC1
[1]
  TGI: > 10 µM
[2]
  TGI: > 10 µM
[4]
  TGI: > 10 µM
[6]
  TGI: > 10 µM
[7]
  TGI: > 10 µM
[8]
  TGI: > 10 µM
[10]
  TGI: > 10 µM
[9]
  TGI: > 10 µM
